Experiment [1] deals with rats with d-galactosamine-induced acute hepatitis. In words: D-galactosamine-induced acute hepatitis in rats, serum GOT and GPT. The format is in vivo. The conditions noted are these: rat serum 24 h after d-galactosamine i.p. (500 mg/kg); test substance oral × 3, dose per group as in Table 3; N = 5.
Experimental: The liver enzymes were dramatically released to the blood stream when the hepatocyte was damaged, and thus the serum GOT and GPT values increased. […] In other words, the restoration effects of the extracts on the damaged liver were evaluated through comparing the GOT and GPT variations before and after a treatment of the extracts.
Five male rats were divided in each group, each rat with body weight about 200±20 g. […] The reference group was orally given guanine (300 mg/kg). Half an hour later, each group was i.p. with d-galactosamine (500 mg/kg), except the control group. Four and eight hours after first injection, test substances were administered orally again at the same dose. After 24 hours, the animals were sacrificed, and the blood was collected from the carotid arteries. The serum was separated and incubated at room temperature for 10 minutes, and then centrifuged (Backman centrifuge, GS-6R, 3000 rpm) for another 10 minutes. The activities of rat serum GOT (Glutamyl Oxaloacetic Transaminase) and GPT (Glutamyl Pyrubic Transaminase) were measured.
The next experiment deals with B type hepatitis. As to conditions: treating B type hepatitis; cited from earlier work.

`Nc1nc2nc[nH]c2c(=O)[nH]1` [Guanine, guanine]: in experiment [1], the GOT amounted to 1024.8 ± 91.1 U/L and the GPT came out at 602.4 ± 61.7 U/L.

Take interferon: in the experiment with B type hepatitis, the positive response was 20%.

These data come from US7150886B2, “Composition for treating diseased liver” (Industrial Technology Research Institute, priority 2002, dated 2006).
